Consider `O=C(Nc1nc(-c2ccco2)c(C(=O)c2cnccn2)s1)c1ccncc1` [Compound 374, N-[4-(2-Furyl)-5-(pyrazin-2-ylcarbonyl)thiazol-2-yl]pyridine-4-carboxamide], for which the melting point is over 300 °C.

As for `O=C(Nc1nc(-c2ccco2)c(C(=O)c2ccncn2)s1)c1ccncc1` [Compound 375, N-[4-(2-Furyl)-5-(pyrimidin-4-ylcarbonyl)thiazol-2-yl]pyridine-4-carboxamide], the melting point was over 300 °C.

`O=C(Nc1nc(-c2ccco2)c(C(=O)c2cccnn2)s1)c1ccncc1` [Compound 376, N-[4-(2-Furyl)-5-(pyridazin-3-ylcarbonyl)thiazol-2-yl]pyridine-4-carboxamide] gave a melting point of 280 to 281 °C.

Take `CC(=O)c1sc(NC(=O)c2ccncc2)nc1-c1ccco1` [Compound 377, N-[5-Acetyl-4-(2-furyl)thiazol-2-yl]pyridine-4-carboxamide]: the melting point was 252 to 259 °C (dec.).

In turn, `O=C(Nc1nc(-c2ccco2)c(C(=O)C(F)(F)F)s1)c1ccncc1` [Compound 380, N-[4-(2-Furyl)-5-(trifluoroacetyl)thiazol-2-yl]pyridine-4-carboxamide] yielded a melting point of 268 to 270 °C.

In the case of `CCC(=O)c1sc(NC(=O)c2ccncc2)nc1-c1ccco1` [Compound 381, N-[4-(2-Furyl)-5-propionylthiazol-2-yl]pyridine-4-carboxamide], the melting point was 225 to 240 °C (dec.).

Consider `CCCC(=O)c1sc(NC(=O)c2ccncc2)nc1-c1ccco1` [Compound 382, N-[5-Butyryl-4-(2-furyl)thiazol-2-yl]pyridine-4-carboxamide], for which the melting point is 191 to 194 °C.

`CCCC(=O)c1sc(NC(=O)C2CC2)nc1-c1ccco1` [Compound 385, N-[5-Butyryl-4-(2-furyl)thiazol-2-yl]cyclopropanecarboxamide] came in with a melting point of 170 to 172 °C.

Take `CC(C)C(=O)c1sc(N)nc1-c1ccco1` [Compound 392, 2-Amino-4-(2-furyl)thiazol-5-yl isopropyl ketone]: the melting point lay within 195 to 199 °C.

Molecule `CC(C)C(=O)c1sc(NC(=O)c2ccncc2)nc1-c1ccco1` [Compound 393, N-[4-(2-Furyl)-5-isobutyrylthiazol-2-yl]pyridine-4-carboxamide] came in with a melting point of 179 to 182 °C.

Turning to `CC(C)C(=O)c1sc(NC(=O)C2CC2)nc1-c1ccco1` [Compound 394, N-[4-(2-Furyl)-5-isobutyrylthiazol-2-yl]cyclopropane carboxamide], the melting point fell in the range of 178 to 182 °C.

With `CC(C)(C)C(=O)c1sc(NC(=O)c2ccncc2)nc1-c1ccco1` [Compound 400, N-[4-(2-Furyl)-5-pivaloylthiazol-2-yl]pyridine-4-carboxamide], the melting point lay within 240 to 245 °C.

In turn, `CC(C)(C)C(=O)c1sc(NC(=O)C2CC2)nc1-c1ccco1` [Compound 401, N-[4-(2-Furyl)-5-pivaloylthiazol-2-yl]cyclopropanecarboxamide] registered a melting point of 133 to 134 °C.

`COCC(=O)c1sc(NC(=O)c2ccc(Cl)nc2)nc1-c1ccco1` [Compound 404, 2-Chloro-N-[4-(2-furyl)-5-(methoxyacetyl)thiazol-2-yl]pyridine-5-carboxamide] had a melting point of 174 to 183 °C.

Turning to `COCC(=O)c1sc(NC(=O)c2ccc(F)cc2)nc1-c1ccco1` [Compound 405, 4-Fluoro-N-[4-(2-furyl)-5-(methoxyacetyl)thiazol-2-yl]benzamide], the melting point lay in the range of 166 to 167 °C.

`COCC#CC(=O)c1sc(NC(=O)c2ccncc2)nc1-c1ccco1` [Compound 413, N-[4-(2-Furyl)-5-(3-methoxypropa-1-ynylcarbonyl)thiazol-2-yl]pyridine-4-carboxamide]: the melting point lay within 198 to 200 °C.

`O=C(Nc1nc(-c2ccco2)c(C(=O)C2CC2)s1)c1ccncc1` [Compound 417, N-[5-(Cyclopropylcarbonyl)-4-(2-furyl)thiazol-2-yl]pyridine-4-carboxamide]: the melting point was 225 to 230 °C (dec.).

Regarding `COc1ccccc1C(=O)Nc1nc(-c2ccco2)c(C(=O)C2CC2)s1` [Compound 420, N-[5-(Cyclopropylcarbonyl)-4-(2-furyl)thiazol-2-yl]-2-methoxybenzamide], the melting point is 150 to 154 °C.

With `Nc1nc(-c2ccco2)c(C(=O)C2CCC2)s1` [Compound 423, 2-Amino-4-(2-furyl)thiazol-5-yl cyclobutyl ketone], the melting point was 125 to 160 °C (dec.).

For the molecule `O=C(Nc1nc(-c2ccco2)c(C(=O)C2CCC2)s1)c1ccncc1` [Compound 424, N-[5-(Cyclobutylcarbonyl)-4-(2-furyl)thiazol-2-yl]pyridine-4-carboxamide], the melting point was 227 to 235 °C (dec.).

Take `O=C(Nc1nc(-c2ccco2)c(C(=O)C2CCC2)s1)c1ccco1` [Compound 425, N-[5-(Cyclobutylcarbonyl)-4-(2-furyl)thiazol-2-yl]furan-2-carboxamide]: the melting point was in the range of 188 to 192 °C.

Molecule `N#Cc1ccc(C(=O)Nc2nc(-c3ccco3)c(C(=O)C3CCC3)s2)cc1` [Compound 426, 4-Cyano-N-[5-(cyclobutylcarbonyl)-4-(2-furyl)thiazol-2-yl]benzamide] had a melting point of 220 to 225 °C.

Regarding `O=C(Nc1nc(-c2ccco2)c(C(=O)C2CCC2)s1)C1CC1` [Compound 427, N-[5-(Cyclobutylcarbonyl)-4-(2-furyl)thiazol-2-yl]cyclopropanecarboxamide], the melting point was in the range of 200 to 205 °C.

`O=C(Nc1nc(-c2ccco2)c(C(=O)C2CCCC2)s1)C1CC1` [Compound 434, N-[5-(Cyclopentylcarbonyl)-4-(2-furyl)thiazol-2-yl]cyclopropanecarboxamide] showed a melting point of 182 to 187 °C.

`O=C(c1sc(NC(=O)N2CCOCC2)nc1-c1ccco1)C1CCCC1` [Compound 435, N-[5-(Cyclopentylcarbonyl)-4-(2-furyl)thiazol-2-yl]-morpholine-4-carboxamide] yielded a melting point of 108 to 110 °C.

`COC1CCC(C(=O)c2sc(NC(=O)c3ccncc3)nc2-c2ccco2)CC1` (stereo not shown) [Compound 442, N-[4-(2-Furyl)-5-(4-methoxycyclohexylcarbonyl)thiazol-2-yl]pyridine-4-carboxamide] yielded a melting point of 180 to 187 °C.

The molecule `COC1CCC(C(=O)c2sc(NC(=O)c3ccc(C#N)cc3)nc2-c2ccco2)CC1` (stereo not shown) [Compound 443, 4-Cyano-N-[4-(2-furyl)-5-(4-methoxycyclohexylcarbonyl)thiazol-2-yl]benzamide] displayed a melting point of 105 to 109 °C.

As for `O=C1CCC(C(=O)c2sc(NC(=O)c3ccncc3)nc2-c2ccco2)CC1` [Compound 448, N-[4-(2-Furyl)-5-(4-oxocyclohexylcarbonyl)thiazol-2-yl]pyridine-4-carboxamide], the melting point was 206 to 212 °C.

`Cc1cc(C(=O)Nc2nc(-c3ccco3)c(C(=O)C3CCC(=O)CC3)s2)ccn1` [Compound 449, N-[4-(2-Furyl)-5-(4-oxocyclohexylcarbonyl)thiazol-2-yl]-2-methylpyridine-4-carboxamide] gave a melting point of 108 to 115 °C.

In turn, `O=C1CCC(C(=O)c2sc(NC(=O)c3ccco3)nc2-c2ccco2)CC1` [Compound 450, N-[4-(2-Furyl)-5-(4-oxocyclohexylcarbonyl)thiazol-2-yl]furan-2-carboxamide] had a melting point of 232 to 235 °C.

Regarding `COc1cccc(C(=O)Nc2nc(-c3ccco3)c(C(=O)C3CCC(=O)CC3)s2)c1` [Compound 451, N-[4-(2-Furyl)-5-(4-oxocyclohexylcarbonyl)thiazol-2-yl]-3-methoxybenzamide], the melting point lay within 176 to 183 °C.

`N#Cc1ccc(C(=O)Nc2nc(-c3ccco3)c(C(=O)C3CCC(=O)CC3)s2)cc1` [Compound 452, 4-Cyano-N-[4-(2-furyl)-5-(4-oxocyclohexylcarbonyl)thiazol-2-yl]benzamide] registered a melting point of 211 to 212 °C.

For `O=C(Nc1nc(-c2ccco2)c(C(=O)C2CCOCC2)s1)c1ccccc1` [Compound 457, N-[4-(2-Furyl)-5-(tetrahydropyran-4-ylcarbonyl)thiazol-2-yl]benzamide], the melting point fell in the range of 221 to 222 °C.

For `Cc1ccccc1C(=O)Nc1nc(-c2ccco2)c(C(=O)C2CCOCC2)s1` [Compound 458, N-[4-(2-Furyl)-5-(tetrahydropyran-4-ylcarbonyl)thiazol-2-yl]-2-methylbenzamide], the melting point was in the range of 204 to 206 °C.

For `Cc1cccc(C(=O)Nc2nc(-c3ccco3)c(C(=O)C3CCOCC3)s2)c1` [Compound 459, N-[4-(2-Furyl)-5-(tetrahydropyran-4-ylcarbonyl)thiazol-2-yl]-3-methylbenzamide], the melting point was in the range of 197 to 201 °C.

Molecule `Cc1ccc(C(=O)Nc2nc(-c3ccco3)c(C(=O)C3CCOCC3)s2)cc1` [Compound 460, N-[4-(2-Furyl)-5-(tetrahydropyran-4-ylcarbonyl)thiazol-2-yl]-4-methylbenzamide] gave a melting point of 190 to 192 °C.

In the case of `COc1ccccc1C(=O)Nc1nc(-c2ccco2)c(C(=O)C2CCOCC2)s1` [Compound 461, N-[4-(2-Furyl)-5-(tetrahydropyran-4-ylcarbonyl)thiazol-2-yl]-2-methoxybenzamide], the melting point fell in the range of 181 to 184 °C.

Regarding `COc1ccc(C(=O)Nc2nc(-c3ccco3)c(C(=O)C3CCOCC3)s2)cc1` [Compound 463, N-[4-(2-Furyl)-5-(tetrahydropyran-4-ylcarbonyl)thiazol-2-yl]-4-methoxybenzamide], the melting point was 184 to 188 °C.

On to `CN(C)c1cccc(C(=O)Nc2nc(-c3ccco3)c(C(=O)C3CCOCC3)s2)c1` [Compound 464, 3-(Dimethylamino)-N-[4-(2-furyl)-5-(tetrahydropyran-4-ylcarbonyl)thiazol-2-yl]benzamide], for which the melting point is 239 to 243 °C.

Consider `CN(C)c1ccc(C(=O)Nc2nc(-c3ccco3)c(C(=O)C3CCOCC3)s2)cc1` [Compound 465, 4-(Dimethylamino)-N-[4-(2-furyl)-5-(tetrahydropyran-4-ylcarbonyl)thiazol-2-yl]benzamide], for which the melting point is 238 to 240 °C.

In general, melting point refers to the temperature, or range, at which the solid turns liquid.

These data come from patent US7718808B2, “Thiazole derivatives” (Kyowa Hakko Kirin Co., Ltd., priority 2003, dated 2010).
